Drawing on patent US4719302A (priority 1987, dated 1988), this text covers MIC for six molecules.

Common to all, as to assay type: cell-based
In assay [1] the test system is Trichophyton mentagrophytes ATCC 9533. Nature of the assay: antifungal activity, disc agar assay (Minimum Inhibitory Concentration), Trichophyton mentagrophytes. Here is the method:
(§1) The compounds of the invention are tested to determine their antifungal activity. The assay procedure is as follows:
(§2) The compounds to be tested are solubilized or suspended in appropriate reagent and further diluted in sterile distilled water to provide a range of concentrations from 200 to 10 μg/ml. 20 Lambda portions are placed on sterile dried 1/4 inch paper discs and allowed to dry for 20-30 minutes. Agar plates with a 10 ml base layer are seeded with the fungi in a 4 ml seed layer and allowed to solidify. The impregnated discs are then placed on the seeded agar surface and incubated for the time required for the particular culture.
(§3) The representative fungi are:
Trichophyton mentagrophytes
(§4) All are human pathogens; the first four cause serious systemic mycotic infections as well as local. The trychophyton culture is mainly a dermatophyte.

Assay [2] concerns Candida albicans ATCC 10231. Nature of the assay: antifungal activity, disc agar assay (Minimum Inhibitory Concentration), Candida albicans. As for the experimental part:
as §1, §2, §3
Candida albicans ATCC 10231
as §4

For assay [3], the system named is Cryptococcus neoformans ATCC 14115. Nature of the assay: antifungal activity, disc agar assay (Minimum Inhibitory Concentration), Cryptococcus neoformans. Here is the method:
as §1, §2, §3, §4

Assay [4] has as its system Blastomyces dermatitidis Yeast Phase ATCC 28839. Nature of the assay: antifungal activity, disc agar assay (Minimum Inhibitory Concentration), Blastomyces dermatitidis yeast phase. The settings on record: read-out: Minimum Inhibitory Concentration. As for the experimental part: as §1, §2, §3
Blastomyces dermatitidis
as §4

Assay [5] has as its system Histoplasma capsulatum Yeast Phase ATCC 11407. The assay can be described thus: microbe, parasite or virus in culture. The following applies: read-out: Minimum Inhibitory Concentration.
The mark [6] stands for this setting: ATCC9533, Trichophyton Mentagrophytes ATCC 9533, read-out: Minimum Inhibitory Concentration.
Setting [7] is: ATCC10231, Candida Albicans ATCC 10231, read-out: Minimum Inhibitory Concentration.
Setting [8] is: ATCC14115, Cryptococcus Neoformans ATCC 14115, read-out: Minimum Inhibitory Concentration.
The mark [9] stands for this setting: Blastomyces Dermatitidis Yeast Phase ATCC 28839.

In brackets after ≈: the same amount, converted by molar mass. Like-named read-outs stand apart in the source and are kept apart here.

For `CCOC(=O)c1c[nH]c2c(F)cc3c(=O)c(C(=O)O)cn(CC)c3c2c1=O` [Example 1, 1-Ethyl-6-fluoro-1,4,7,10-tetrahydro-4,10-dioxo-1,7-phenanthroline-3,9-dicarboxylic acid 9-ethyl ester], the MIC stood at 64 µg/mL (≈ 171 µM) in assay [1] (setting [6]); 32 µg/mL (≈ 85.5 µM) in assay [2] (setting [7]); 64 µg/mL (≈ 171 µM) in assay [3] (setting [8]); 32 µg/mL (≈ 85.5 µM) in assay [4] (setting [9]); 32 µg/mL (≈ 85.5 µM) in assay [5].

Consider `CCOC(=O)c1cn(CC)c2c(cc(F)c3c2c(=O)c(C(=O)OCC)cn3CC)c1=O` [Example 2, 1,7-Diethyl-6-fluoro-1,4,7,10-tetrahydro-4,10-dioxo-1,7-phenanthroline-3,9-dicarboxylic acid diethyl ester], for which the MIC was more than 64 µg/mL in assay [1] (setting [6]); more than 64 µg/mL in assay [2] (setting [7]); more than 64 µg/mL in assay [3] (setting [8]); 64 µg/mL (≈ 149 µM) in assay [4] (setting [9]); 64 µg/mL (≈ 149 µM) in assay [5].

With `CCOC(=O)c1c[nH]c2c(cc(F)c3c2c(=O)c(C(=O)OCC)cn3CC)c1=O` [Example 6, 7-Ethyl-6-fluoro-1,4,7,10-tetrahydro-4,10-dioxo-1,7-phenanthroline-3,9-dicarboxylic acid diethyl ester], the MIC in assay [1] (setting [6]) is more than 64 µg/mL; in assay [2] (setting [7]), more than 64 µg/mL; in assay [3] (setting [8]) it was more than 64 µg/mL; in assay [4] (setting [9]), 64 µg/mL (≈ 159 µM); in assay [5], 64 µg/mL (≈ 159 µM).

As to `CCOC(=O)c1c[nH]c2c(cc(F)c3c2c(=O)ccn3CC)c1=O` [Example 4, 7-Ethyl-6-fluoro-1,4,7,10-tetrahydro-4,10-dioxo-1,7-phenanthroline-3-carboxylic acid ethyl ester], the MIC in assay [1] (Trichophyton mentagrophytes, ATCC9533, read-out: Minimum Inhibitory Concentration) was more than 256 µg/mL; in assay [2] (Candida albicans, ATCC10231, read-out: Minimum Inhibitory Concentration), more than 256 µg/mL; in assay [3] (Cryptococcus neoformans, ATCC14115, read-out: Minimum Inhibitory Concentration) it was more than 256 µg/mL; in assay [4], more than 256 µg/mL; in assay [5] it was more than 256 µg/mL.

Consider `CCn1cc(C(=O)O)c(=O)c2c1c(F)cc1c(=O)c(C(=O)O)cn(CC)c12` [Example 3, 1,7-Diethyl-6-fluoro-1,4,7,10-tetrahydro-4,10-dioxo-1,7-phenanthroline-3,9-dicarboxylic acid], for which the MIC is more than 64 µg/mL in assay [1] (setting [6]); more than 64 µg/mL in assay [2] (setting [7]); more than 64 µg/mL in assay [3] (setting [8]); 64 µg/mL (≈ 171 µM) in assay [4] (setting [9]); 64 µg/mL (≈ 171 µM) in assay [5].

On to `CCOC(=O)c1c[nH]c2c(cc(F)c3c2c(=O)c(C(=O)O)cn3CC)c1=O` [Example 5, 7-Ethyl-6-fluoro-1,4,7,10-tetrahydro-4,10-dioxo-1,7-phenanthroline-3,9-dicarboxylic acid 3-ethyl ester], for which the MIC in assay [1] (setting [6]), in assay [2] (setting [7]), in assay [3] (setting [8]), in assay [4] (setting [9]) and in assay [5] was more than 256 µg/mL throughout.
